Assay results published in article PMC4453016, “Novel Bifunctional Cyclic Chelator for ^89Zr Labeling–Radiolabeling and Targeting Properties of RGD Conjugates” (Molecular Pharmaceutics, 2015).
Values joined by “and” are separate entries in the source; they are usually repeats but may differ in a detail not shown here. Equal values may be shown once.

Assays:
[1] = Stability assay in 1000-fold molar excess of EDTA solution (ITLC); type: physicochemical; details: for transchelation in EDTA solution: 1000-fold molar excess of EDTA; for % intact starting species by incubation time: competitor EDTA 1000-fold excess, 37 °C, n = 3
Procedure: (§1) Determination of the stability of [^89Zr]DFO, [^89Zr]TAFC, and [^89Zr]FSC-RGD conjugates was carried out by incubating the radioligands in PBS, 1000-fold molar excess of EDTA solution with different pH (pH 7 and pH 6; radioligand vs EDTA: 25 μM vs 25 mM) as well as in human serum for 7 days at 37 °C, respectively. At selected time points three aliquots of PBS and EDTA solution were analyzed directly via ITLC, while the three serum aliquots were mixed with 500 μL of CH3CN, vortexed, and centrifuged at 20,000 rcf for 2 min prior to analysis.

[2] = Protein binding assay in fresh human serum (size exclusion spin column); details: 37 °C, incubation time 168 h
[3] = Transchelation study with 1000-fold molar excess of TAFC or DFO (RP-HPLC); type: physicochemical; details: for % intact starting species by incubation time: RT, n = 3
Procedure: [^89Zr]DFO and [^89Zr]TAFC (50 μL each) were mixed with a 1000-fold molar excess of either TAFC or DFO for 7 days at RT. At selected time points aliquots of the solutions were analyzed directly via RP-HPLC. ([^89Zr]DFO tR = 4.8 min; [^89Zr]TAFC tR = 5.9 min). The transchelation was determined by the ratio of [^89Zr]DFO and [^89Zr]TAFC. Three replicates were analyzed for each radioligand.

[4] = Biodistribution of [^89Zr]TAFC in healthy mice; type: in vivo, BALB/c mice; details: normal mice, i.v., 6 h p.i., n = 4
Procedure: For the evaluation of biodistribution, four healthy female BALB/c mice (Charles River Laboratories, Sulzfeld, GER) were intravenously injected with [^89Zr]TAFC (∼1.5 MBq/mouse, ∼4 μg of precursor) into the tail vein and sacrificed at 6 h postinjection (p.i.). For the evaluation of tumor uptake of [^89Zr]FSC(succ-RGD)3 female, athymic BALB/c nude mice (Charles River Laboratories) were used. For the induction of tumor xenografts mice were injected subcutaneously with 5 × 10^6 αvβ3 integrin positive M21 cells into the right hind limb and with 5 × 10^6 αvβ3 integrin negative M21-L cells (negative control) into the left hind limb of the same mouse (n = 4). The tumors were allowed to grow until they had reached a volume of 0.3 to 0.6 cm^3. On the day of the experiment [^89Zr]FSC(succ-RGD)3 (∼0.5 MBq/mouse, ∼0.5 μg of peptide) was intravenously injected in the lateral tail vein. Mice were sacrificed by cervical dislocation at 1, 2, and 4 h after injection. Organs (spleen, pancreas, stomach, intestine, kidney, liver, heart, and lung), blood, muscle tissue, bone, and tumors were dissected and weighted. As a comparison, four tumor-bearing mice were intravenously injected in the tail vein with [^68Ga]FSC(succ-RGD)3 (∼0.5 MBq/mouse, ∼0.5 μg of precursor) and sacrificed at 1 h p.i. Activity of the different samples was measured in the gamma counter. Results were expressed as percentage of injected dose per gram tissue (% ID/g).

[5] = Stability assay in PBS and human serum; type: physicochemical; details: period of 7 days, 37 °C; no demetalation was observed
Procedure: as §1

[6] = Distribution coefficient (logD), octanol/PBS; details: pH 7.4

CC(=O)NC1CCCN(O)C(=O)/C=C(/C)CCOC(=O)C(NC(C)=O)CCCN(O)C(=O)/C=C(/C)CCOC(=O)C(NC(C)=O)CCCN(O)C(=O)/C=C(/C)CCOC1=O (centres unmarked) [[^89Zr]TAFC, triacetylfusarinine C, metal not drawn]
transchelation in EDTA solution ([1]; pH 7, after 7 days, ITLC): no transchelation
transchelation in an EDTA challenging experiment ([1]; after 7 days): 3–5%
% intact starting species by incubation time ([1]; pH 6, 1 h): 99.0 ± 0.1%
% intact starting species by incubation time ([1]; pH 6, 4 h): 98.1 ± 0.2%
% intact starting species by incubation time ([1]; pH 6, 1 d): 96.0 ± 0.6%
% intact starting species by incubation time ([1]; pH 6, 3 d): 94.7 ± 0.3%
% intact starting species by incubation time ([1]; pH 6, 5 d): 95.9 ± 0.3%
% intact starting species by incubation time ([1]; pH 6, 7 d): 94.4 ± 0.5%
% intact starting species by incubation time ([1]; pH 7, 1 h): 99.6 ± 0.1%
% intact starting species by incubation time ([1]; pH 7, 4 h): 99.6 ± 0.1%
% intact starting species by incubation time ([1]; pH 7, 1 d): 99.3 ± 0.2%
% intact starting species by incubation time ([1]; pH 7, 3 d): 96.9 ± 0.3%
% intact starting species by incubation time ([1]; pH 7, 5 d): 98.3 ± 0.1%
% intact starting species by incubation time ([1]; pH 7, 7 d): 97.2 ± 0.2%
protein binding (%) [2]: 6.8 ± 0.5%
% intact starting species by incubation time ([3]; competitor DFO 1000-fold excess, pH 6, 1 h): 96.7 ± 0.2%
% intact starting species by incubation time ([3]; competitor DFO 1000-fold excess, pH 6, 4 h): 91.9 ± 0.3%
% intact starting species by incubation time ([3]; competitor DFO 1000-fold excess, pH 6, 1 d): 74.2 ± 3.0%
% intact starting species by incubation time ([3]; competitor DFO 1000-fold excess, pH 6, 3 d): 53.0 ± 4.1%
% intact starting species by incubation time ([3]; competitor DFO 1000-fold excess, pH 6, 5 d): 43.3 ± 3.5%
% intact starting species by incubation time ([3]; competitor DFO 1000-fold excess, pH 6, 7 d): 40% and 39.8 ± 2.0%
blood activity [4]: 0.05 ± 0.01 % ID/g
renal retention (kidney) [4]: 0.86 ± 0.48 % ID/g
uptake of bone [4]: 0.04 ± 0.02 % ID/g
stability in PBS and human serum [5]: high stability
logD [6]: -2

CC(=O)N(O)CCCCCNC(=O)CCC(=O)N(O)CCCCCNC(=O)CCC(=O)N(O)CCCCCN [[^89Zr]DFO, desferrioxamine B, metal not drawn, reference compound]
transchelation in EDTA solution ([1]; pH 6, after 3 days): more than 90%
transchelation in EDTA solution ([1]; pH 7, after 7 days, ITLC): ~60%
% intact starting species by incubation time ([1]; pH 6, 1 h): 94.6 ± 0.4%
% intact starting species by incubation time ([1]; pH 6, 4 h): 63.5 ± 3.6%
% intact starting species by incubation time ([1]; pH 6, 1 d): 38.2 ± 8.4%
% intact starting species by incubation time ([1]; pH 6, 3 d): 6.4 ± 2.0%
% intact starting species by incubation time ([1]; pH 6, 5 d): 6.0 ± 1.8%
% intact starting species by incubation time ([1]; pH 7, 1 h): 95.5 ± 0.5%
% intact starting species by incubation time ([1]; pH 7, 4 h): 76.0 ± 1.0%
% intact starting species by incubation time ([1]; pH 7, 1 d): 55.4 ± 3.2%
% intact starting species by incubation time ([1]; pH 7, 3 d): 41.0 ± 5.2%
% intact starting species by incubation time ([1]; pH 7, 5 d): 43.3 ± 2.5%
% intact starting species by incubation time ([1]; pH 7, 7 d): 42.2 ± 2.3%
protein binding (%) [2]: 8.7 ± 1.0%
% intact starting species by incubation time ([3]; competitor TAFC 1000-fold excess, pH 6, 1 h): 0.0 ± 0.0%
fraction transchelated in 1000-fold molar excess of TAFC ([3]; within 1 h): 100%
stability in PBS and human serum [5]: high stability
logD [6]: -3
